Laboratory results from US6596500B1, “Binding of retinoids to M6P/IGF-II receptor” (The General Hospital Corporation, priority 1998, dated 2003).
“Also recorded” adds a separate entry of the source.

Assays:
[1] = biological target: T1, M6P/IGF2R (300 kDa protein) (Rattus norvegicus, UniProt G3V824); assay: [3H]RA photoaffinity labeling of the 300 kDa protein; type: binding; conditions: for Inhibition of [3H]RA photolabeling/binding to M6P/IGF2R by nonradioactive competitor: 25- to 50-fold molar excess (50 μM) competitor added before photolysis
T1 construct: about 100 μg of proteins of membrane preparations or serum; from tissue; host or cells: membrane preparations of cultured neonatal Sprague-Dawley rat cardiac myocytes
T1 sequence (G3V824 36-2481): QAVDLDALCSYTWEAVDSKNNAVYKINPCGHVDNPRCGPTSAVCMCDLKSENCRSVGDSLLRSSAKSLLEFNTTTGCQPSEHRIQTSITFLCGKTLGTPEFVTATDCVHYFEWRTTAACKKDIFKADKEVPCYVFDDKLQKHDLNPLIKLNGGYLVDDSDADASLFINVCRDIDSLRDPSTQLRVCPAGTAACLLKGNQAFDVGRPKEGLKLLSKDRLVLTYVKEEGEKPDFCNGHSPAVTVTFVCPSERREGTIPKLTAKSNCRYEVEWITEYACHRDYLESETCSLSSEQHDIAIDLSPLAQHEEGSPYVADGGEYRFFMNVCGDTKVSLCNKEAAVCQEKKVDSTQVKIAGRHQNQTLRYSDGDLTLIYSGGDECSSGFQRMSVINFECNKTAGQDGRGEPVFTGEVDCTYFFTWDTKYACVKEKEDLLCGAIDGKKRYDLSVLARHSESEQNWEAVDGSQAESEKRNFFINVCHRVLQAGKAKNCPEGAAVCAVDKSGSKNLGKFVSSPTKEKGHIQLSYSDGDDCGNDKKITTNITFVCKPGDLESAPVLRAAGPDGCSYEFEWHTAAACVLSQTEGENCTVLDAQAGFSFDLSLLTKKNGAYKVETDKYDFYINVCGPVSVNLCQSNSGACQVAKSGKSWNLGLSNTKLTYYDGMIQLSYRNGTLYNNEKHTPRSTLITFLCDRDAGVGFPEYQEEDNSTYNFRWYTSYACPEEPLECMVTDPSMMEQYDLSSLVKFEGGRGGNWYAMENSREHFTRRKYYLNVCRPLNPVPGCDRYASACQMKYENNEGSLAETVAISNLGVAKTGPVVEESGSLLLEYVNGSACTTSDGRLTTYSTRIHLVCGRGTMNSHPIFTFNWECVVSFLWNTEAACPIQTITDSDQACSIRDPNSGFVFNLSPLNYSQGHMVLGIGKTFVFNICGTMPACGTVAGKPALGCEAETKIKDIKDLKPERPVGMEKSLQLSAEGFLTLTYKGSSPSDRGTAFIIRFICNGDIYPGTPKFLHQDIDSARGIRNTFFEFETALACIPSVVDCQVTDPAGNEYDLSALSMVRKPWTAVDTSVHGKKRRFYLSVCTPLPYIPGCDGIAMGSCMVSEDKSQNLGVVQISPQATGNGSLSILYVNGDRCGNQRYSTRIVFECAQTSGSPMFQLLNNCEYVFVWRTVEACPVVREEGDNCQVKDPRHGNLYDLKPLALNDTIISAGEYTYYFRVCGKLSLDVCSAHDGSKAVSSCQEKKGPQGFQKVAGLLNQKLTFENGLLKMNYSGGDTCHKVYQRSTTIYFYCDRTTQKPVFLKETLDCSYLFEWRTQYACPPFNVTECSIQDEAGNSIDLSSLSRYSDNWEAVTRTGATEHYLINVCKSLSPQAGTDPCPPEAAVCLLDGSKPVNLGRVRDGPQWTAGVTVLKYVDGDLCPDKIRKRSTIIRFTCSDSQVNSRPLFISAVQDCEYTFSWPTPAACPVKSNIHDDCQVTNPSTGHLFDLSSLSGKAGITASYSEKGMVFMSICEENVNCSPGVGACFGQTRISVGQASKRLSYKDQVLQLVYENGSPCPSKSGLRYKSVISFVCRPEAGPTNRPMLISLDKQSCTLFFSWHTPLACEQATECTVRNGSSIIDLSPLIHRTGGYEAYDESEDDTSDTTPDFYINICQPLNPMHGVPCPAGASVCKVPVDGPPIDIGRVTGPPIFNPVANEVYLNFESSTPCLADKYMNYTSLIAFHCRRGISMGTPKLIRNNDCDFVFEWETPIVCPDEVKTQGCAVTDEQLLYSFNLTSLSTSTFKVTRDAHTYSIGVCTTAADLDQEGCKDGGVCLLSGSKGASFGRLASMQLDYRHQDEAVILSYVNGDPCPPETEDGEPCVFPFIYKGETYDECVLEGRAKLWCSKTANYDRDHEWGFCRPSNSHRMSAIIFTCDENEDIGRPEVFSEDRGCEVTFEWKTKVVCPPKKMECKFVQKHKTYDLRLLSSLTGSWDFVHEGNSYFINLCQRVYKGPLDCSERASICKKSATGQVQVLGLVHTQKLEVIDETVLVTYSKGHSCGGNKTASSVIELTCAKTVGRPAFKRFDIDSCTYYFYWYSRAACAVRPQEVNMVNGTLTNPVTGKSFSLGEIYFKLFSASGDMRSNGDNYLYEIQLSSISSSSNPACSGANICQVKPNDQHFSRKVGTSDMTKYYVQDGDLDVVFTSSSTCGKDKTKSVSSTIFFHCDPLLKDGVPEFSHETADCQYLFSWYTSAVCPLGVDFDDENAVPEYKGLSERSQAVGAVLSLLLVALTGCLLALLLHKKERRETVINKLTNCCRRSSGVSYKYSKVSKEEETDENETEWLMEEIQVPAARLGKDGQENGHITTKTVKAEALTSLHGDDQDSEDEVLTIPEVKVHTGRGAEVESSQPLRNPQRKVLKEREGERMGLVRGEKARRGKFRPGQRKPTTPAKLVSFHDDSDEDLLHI
Protocol: Photoaffinity Labeling Photoaffinity labeling was performed essentially according to the methods described in Bernstein et al., 1995, Proc. Natl. Acad. Sci. USA 92:654-658. […] After the ethanol has been evaporated with nitrogen, about 100 μg of proteins of membrane preparations or serum [serum proteins were first concentrated using a Biomax-100K Centrifugal Filter Device (Millipore)] were then added to each tube. The final volume was adjusted to 100 μl with 50 mM Tris buffer (pH 7.4) containing protease inhibitors (5 mM EDTA, 5 mM EGTA, 0.1 mM phenylmethylsulfonyl fluoride, 0.05% NaN3, 20 μg/ml aprotinin, 10 μg/ml benzamidine and 12.5 μg/ml chymostatin) and 50 μM butylated hydroxytoluene (a radical scavenger, used to minimize the non-specific labeling) for a final concentration of 1 μM labeled retinoic acid. The samples were incubated at room temperature with agitation for 1 hour in the dark. The samples were exposed to an intense 365-nm UV light source (Model B 100AP, UPland, CA) for 7 min. […] To remove the non-covalently bound ligands, the photolabeled samples were extracted with chloroform/methanol (2:1), or washed once by centrifugation for membrane samples only).
Fluorography The resultant protein pellets were dissolved in SDS sample buffer containing 5% β-mercapto-ethanol and heated at 100° C. for 5 min. These samples were then run on 7% polyacrylamide gels (30:0.2, acrylamide/bisacrylamide ratio), using conventional SDS/PAGE techniques. After electrophoresis, the gels were stained with Coomassie blue, soaked in Amplifier (Amersham, Life Science) for 30 minutes, dried by a vacuum gel dryer and then exposed to Hyperfilm-TM X-ray films (Amersham, Life Science) at […] for 1-3 days.

[2] = biological target: T2, M6P/IGF-II receptor (Rattus norvegicus, UniProt G3V824); assay: Endocytosis of exogenous β-glucuronidase in cultured cardiac myocytes; type: cell-based
T2 construct: cultured neonatal rat cardiac myocytes, which were known to express high levels of the M6P/IGF-II receptor; endogenous in cells; host or cells: primary neonatal rat cardiac myocytes
T2 sequence (G3V824 36-2481): as above
Protocol: FIG. 4 is a histogram summarizing data on the effect of RA on the endocytosis of exogenous β-glucuronidase. Myocytes were incubated for 2 h at 37°0 C. with 1 ml of MEM containing 10,000 units of human β-glucuronidase, and with or without 5 mM mannose 6-phosphate, in the presence or absence of 2 μM RA. Following the incubation, the internalized human β-glucuronidase was determined as described in the Methods.
(§1) The primary functions of the Man-6-P/IGF-II receptor are to mediate endocytosis of extracellular M6P-containing proteins (e.g. lysosomal enzymes) and IGF-II and to sort newly synthesized lysosomal enzymes. Therefore, an important question raised by the direct interaction of RA with M6P/IGF2R is whether RA influences these functions of the receptor. To answer this question, we examined the effect of RA on endocytosis of exogenous β-glucuronidase and ^125I-IGF-II and intracellular activity of acid phosphatase in cultured neonatal rat cardiac myocytes, which were known to express high levels of the M6P/IGF-II receptor (Nissley et al., 1993, Mol. Reprod. Dev. 35:408-413). […] This indicated an increased sorting of lysosomal enzymes) (FIGS. 4-6). […]
Endocytosis of extracellular β-glucuronidase was determined as described by Kyle et al., 1988, J. Biol. Chem. 263:16230-16235. […]

[3] = biological target: T2, M6P/IGF-II receptor; assay: Internalization of 125I-IGF-II in cultured cardiac myocytes; type: cell-based; conditions: RA 2 μM; 2 h
Protocol: FIG. 5 is a histogram summarizing data on the effect of RA on the internalization of ^125I-IGF-II. Assay was performed by incubating cells at […] for 2 h in media (150 mM NaCl, 5 mM KCl, 1.2 mM MgSO4, 8 mM glucose, 100 mM Hepes, pH 7.6) or F-10 culture medium containing ^125I-IGF-II (0.5 ng/ml) with or without excess unlabeled IGF-II (2 μg/ml), in the presence or absence of 2 μM RA. Following the incubation, the cells were washed three times with ice-cold PBS, and cell-associated radioactivity was determined by a gamma counter.
as §1

[4] = system: neonatal rat cardiac myocytes; assay: Cellular acid phosphatase activity in cultured cardiac myocytes; type: cell-based; conditions: RA 2 μM; various times
Protocol: FIG. 6. is a graph summarizing data on the effect of RA on cellular acid phosphatase activity. Cultured neonatal rat cardiac myocytes were treated with 2 μM RA at 37° C. for various time, washed and harvested. Cellular proteins were then solubilized by sonication and acid phosphatase activity was assayed using a Diagnostics Acid Phosphatase kit (Sigma). Dotted line represents control cells. Solid line represents RA-treated cells. Bars represent standard error or the mean (n=4).
The primary functions of the Man-6-P/IGF-II receptor are to mediate endocytosis of extracellular M6P-containing proteins (e.g. lysosomal enzymes) and IGF-II and to sort newly synthesized lysosomal enzymes. Therefore, an important question raised by the direct interaction of RA with M6P/IGF2R is whether RA influences these functions of the receptor. To answer this question, we examined the effect of RA on endocytosis of exogenous β-glucuronidase and ^125I-IGF-II and intracellular activity of acid phosphatase in cultured neonatal rat cardiac myocytes, which were known to express high levels of the M6P/IGF-II receptor (Nissley et al., 1993, Mol. Reprod. Dev. 35:408-413). […] This indicated an increased sorting of lysosomal enzymes) (FIGS. 4-6). […] These effects of RA were not altered in the presence of a protein synthesis inhibitor (0.5 mM cycloheximide) and were not observed in the receptor-negative P388D1 cells. […]

[5] = system: neonatal rat cardiac myocytes; assay: Growth, morphology and apoptosis of cardiac myocytes; type: cell-based
Protocol: Cultured neonatal rat cardiac myocytes were known to express high levels of the M6P/IGF2R protein. The effect of RA on the growth of normal, neonatal rat cardiac myocytes was examined.
Cell Isolation and Culture For the photoaffinity labeling experiments, cardiac myocytes were isolated from 1-day-old neonatal Sprague-Dawley rats, using the Neonatal Cardiomyocyte Isolation System (Worthington). The isolated cell were cultured on Petri dishes with culture medium (F-10 nutrient mixture/10% horse serum/5% fetal bovine serum/50 μg/ml streptomycin/50 units/ml penicillin G). Cells were used for experiments after 2-6 days of culture.

Inhibition of [3H]RA photolabeling/binding to M6P/IGF2R by nonradioactive competitor ([1]; listed as all-trans-retinoic acid): abolished the labeling | Effects of RA on endocytosis, IGF-II internalization and acid phosphatase with protein synthesis inhibitor ([2]; RA 2 μM plus 0.5 mM cycloheximide): not altered | M6P-inhibitable endocytosis of β-glucuronidase ([2]; RA 2 μM, 2 h at 37° C.): almost doubled | Increase of internalization of IGF-II [3]: 30-50%
SMILES: CC1=C(/C=C/C(C)=C/C=C/C(C)=C/C(=O)O)C(C)(C)CCC1 [RA, all-trans-retinoic acid]
Inhibition of [3H]RA photolabeling/binding to M6P/IGF2R by nonradioactive competitor [1]: the radiolabel at the 300 kDa protein was lost; also recorded: inhibited the binding | Photoaffinity labeling of protein by [3H]RA ([1]; incubation with [3H]RA followed by photolysis): labeling of a doublet protein at 300 kDa; also recorded: intensively photolabeled | Cellular acid phosphatase activity [4]: induced a transient cellular accumulation of acid phosphatase | Cell morphology and growth ([5]; 48 hours): marked alteration of cell morphology, and inhibition of growth | Apoptotic cells (Hoechst 33258 nuclear staining) ([5]; RA-treated cultures vs controls): many more apoptotic cells
